Like-named read-outs stand apart in the source and are kept apart here.

For series [1] the following is noted: in vivo, iv, 1 mg/kg.
Procedure: (§1) Three animals were injected IV in each group with a dose of 1 mg/kg. Plasma was isolated at serial time points: pre-dosing (time 0), 10 minutes, 30 minutes, 1 hour, 2 hours 4 hours, 6 hours and 24 hours. RNA was extracted from the plasma according to Rosetta Genomics' protocol of miRNA isolation from fluids. qPCR was done for miR-34a, normalized to selected miRNAs: hsa-miR-16-5p, hsa-miR-103a-3p and hsa-miR-23a-3p.
Series [2] in a line: PK study with formulated miRNA. Conditions: 71%-14%, from plasma levels at 30 minutes.
Procedure: as §1
Series [3] concerns orthotopic intraperitoneal tumors of SKOV-3 human ovarian adenocarcinoma cells. To be noted: mouse, in vivo, ip, 7 mg/kg.
Procedure: (§2) In vivo bio-distribution and activity of miR-34a or siRNA formulated with DOPC/Ampholip was evaluated in female nude mice bearing orthotopic intraperitoneal tumors of SKOV-3 human ovarian adenocarcinoma cells.
(§3) This experiment intended to assess the bio-distribution and activity of amphoteric liposomes/miR34a and amphoteric liposomes/miR-34a-SL. To this end, experimental model female nude mice bearing the orthotopic tumors received three series of repeated intraperitoneal (IP) injections (at days 20, 22 and 25) with amphoteric liposomes/miRNA in concentration of 7 mg/kg of miRNA. Twenty-four hours after the last dose the tumors were removed, and RNA extracted.
Series [4] shares this test system. Description: In vivo SKOV model: miR-34a accumulation in tumor (Ampholip 1). To be noted: IP, 7 mg/kg miRNA, days 20, 22, 25, tumors 24 h after last dose, 'miR-34a-SL' = DOPC/Ampholip1/miR-34a-SL (2M), folate formulation = DOPC/Ampholip1/Folate/miR-34a (1M).
Procedure: as §2, §3
For the next series, the system named is BALB/c mice. Description: In vivo toxicity, single IV escalating dose. To be noted: as formulated siRNA, Ampholip1 up to 10 mg/kg, Ampholip2 up to 5 mg/kg, 24 hours and 7 days. The protocol:
Each group comprised six (6) males and six (6) females BALB/cOlaHsd mice, where half of each group (3 males and 3 females) were assigned to 24 hours or 7 days termination time points, respectively. Animals were subjected to clinical hematology and biochemistry assessment at 24 hours and 7 days post dosing, followed by gross macroscopic examination. The following parameters were evaluated for toxicity: mortality, clinical signs, body weight, weight gain, hematology and biochemistry tests.

With “miR-34a: hsa-miR-34a naked (non-conjugated) duplex, SEQ ID NO 1 and 2 (chain 1 UGGCAGUGUCUUAGCUGGUUGU; chain 2 ACAAUCAGCAAGUAUACUGCCC; further chemistry not given here; listed as Homo sapiens)”, in series [1], the “plasma stability / bioavailability of miR-34a, in words” value was “rapidly degraded”. Besides, the estimate of encapsulation in series [2] is given as 57%.

As for “miR-34a-SL: hsa-miR-34a conjugated to sphingolipid, SEQ ID NO 1 and 3 (chain 1 UGGCAGUGUCUUAGCUGGUUGU; chain 2 CAAUCAGCAAGUAUACUGCCCU; sphingolipid conjugate, position not given here; listed as Homo sapiens)”, the “share in circulation at 30 minutes relative to 10 minutes” value in series [1] is 14%. The “fold enrichment of miR-34a in tumor relative to the negative controls” value is recorded as “two” in series [3] and 604 fold in series [4].

On to `CCCCCCCCCCCCC/C=C/[C@@H](O)[C@H](COC(=O)NCCCNCCCCNCCCNC(=O)CCC(=O)O)NC(=O)CCCCCCCCCCCCCCC` [Ampholip 2, Carboxy-N-palmitoyl-D-erythro-sphingosyl-1-carbamoyl spermine], for which, in the series on BALB/c mice, the gross pathological findings result was “no gross pathological findings”; the “mortality, clinical signs, body weight, weight gain, hematology and biochemistry vs saline-treated groups” value is listed as “No significant statistical difference”.

The values are drawn from patent US10722599B2, “Lipid assemblies and uses thereof and some pH and electrostatic modulating lipids to be used in said assemblies” (Yissum Research Development Company of the Hebrew …, priority 2015, dated 2020).
